Columns and labels:
c-Src kinase = molecular target: T1, c-Src kinase (Homo sapiens, UniProt P12931); assay: c-Src kinase activity assay (HTScan Src Kinase Assay Kit); assay type: biochemical; conditions: concentration that inhibited enzyme activity by 50%; triplicate; read-out: IC50 (inhibition of Src kinase activity)
T1 construct: purchased Cell Signaling Technology (Danvers, MA, USA) 7776
Experimental: Streptavidin-coated plates were purchased from Pierce (Rockford, IL, USA). […] The reaction mixture was incubated for 30 min at room temperature. The kinase reaction was stopped with the addition of 50 μL of 50 mM EDTA (pH 8.0). […] At the end of the incubation, the wells were washed three times with 200 μL of 0.05% Tween-20 in PBS buffer (PBS/T). After that to each well was added 100 μL of phosphotyrosine antibody (P-Tyr-100) (1:1000 dilution in PBS/T with 1% BSA) and the wells were incubated for another 60 min. After washing three times with 0.05% Tween-20 in PBS/T, the wells were incubated with 100 μL secondary anti-mouse IgG antibody, which was HRP-conjugated (1:500 dilution in PBS/T with 1% BSA) for next 30 min at room temperature. The wells were washed five times with 0.05% Tween-20 in PBS and then were incubated with 100 μL of 3,3',5,5'-tetramethylbenzidine dihydrochloride (TMB) substrate for 5 min. The reaction was stopped by adding 100 μL/well of stop solution to each well and mixed well and read the absorbance at 450 nm using a microplate reader (Molecular devices, spectra Max M2). IC50 values of the compounds were calculated using ORIGIN 6.0 (origin lab) software. […] All the experiments were carried out in triplicate.

[1] = system: mesenchymal stem cell proliferation; parameters: method as in PMID 9562601; conditions: cited from earlier work
[2] = system: breast carcinoma (BT-20) cell line; assay: Cell proliferation assay (CellTiter 96) in BT-20 cells; assay type: cell-based; conditions: DOX 10 μM, 72 h incubation, relative to DMSO control
Experimental: Breast carcinoma BT-20 (ATCC no. HTB-19) cell lines were obtained from American Type Culture Collection. Cells were grown on 75 cm^2 cell culture with EMEM medium for breast carcinoma and supplemented with 10% fetal bovine serum (FBS), and 1% penicillin-streptomycin solution (10,000 units of penicillin and 10 mg of streptomycin in 0.9% NaCl) in a humidified atmosphere of 5% CO2, 95% air at 37°C.
Cell proliferation assay of compounds was evaluated in BT-20 cells, and was compared with that of doxorubicin (DOX)[38]. Cell proliferation assay was carried out using CellTiter 96 aqueous one solution cell proliferation assay kit (Promega, USA). Briefly, upon reaching about 75-80% confluence, 5000 cells/well were plated in 96-well microplate in 100 μL media. After seeding for 72 h, the cells were treated with 50 μM compound in triplicate. […] The absorbance of the formazan product was measured at 490 nm using microplate reader. The blank control was recorded by measuring the absorbance at 490 nm with wells containing medium mixed with CellTiter 96 aqueous solution but no cells. Results were expressed as the percentage of the control (DMSO without compound set at 100%). The percentage of cell survival was calculated as (OD value of cells treated with test compound - OD value of culture medium) / (OD value of control cells – OD value of culture medium) × 100%. […]

T1 sequence (P12931 whole entry): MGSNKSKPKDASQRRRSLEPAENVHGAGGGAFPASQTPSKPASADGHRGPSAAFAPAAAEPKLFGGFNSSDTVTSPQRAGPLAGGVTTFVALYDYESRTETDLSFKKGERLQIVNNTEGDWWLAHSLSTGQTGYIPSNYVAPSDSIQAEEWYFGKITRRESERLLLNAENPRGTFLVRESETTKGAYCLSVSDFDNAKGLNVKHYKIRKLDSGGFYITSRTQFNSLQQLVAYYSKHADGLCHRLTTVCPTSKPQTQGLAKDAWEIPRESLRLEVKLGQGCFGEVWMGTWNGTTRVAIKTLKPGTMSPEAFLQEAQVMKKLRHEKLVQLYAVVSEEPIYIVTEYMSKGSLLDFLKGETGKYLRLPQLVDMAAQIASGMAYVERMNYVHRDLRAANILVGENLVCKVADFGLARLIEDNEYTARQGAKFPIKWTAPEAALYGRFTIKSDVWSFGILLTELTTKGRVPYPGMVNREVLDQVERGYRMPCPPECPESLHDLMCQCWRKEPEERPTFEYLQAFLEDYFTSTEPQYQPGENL

| Compound | IC50 (c-Src kinase) [µM] | other results |
| --- | --- | --- |
| N#CC1=C(N)Oc2c(ccc3ccccc23)C1c1ccccc1Cl (stereo not drawn) [Compound 4d] | 34.7 |  |
| N#CC1=C(N)Oc2ccc3ccccc3c2C1c1cccc(Cl)c1 (stereo not drawn) [Compound 4j] | 41.7 |  |
| N#CC1=C(N)Oc2ccc3ccccc3c2C1c1cccc(O)c1 (stereo not drawn) [Compound 4m] | 33.8 |  |
| COc1ccc(C2C(C#N)=C(N)Oc3ccc4ccccc4c32)cc1 (stereo not drawn) [Compound 4n] | 34.5 |  |
| CSc1ccc(C2C(C#N)=C(N)OC3=C2CCc2ccccc23)cc1 (stereo not drawn) [compound B, 4-aryl-4H-5,6-dihydronaphtho[1,2-b]pyran] |  | IC50 [1]: 13 µM |
| COc1cccc2c1C(=O)c1c(O)c3c(c(O)c1C2=O)C[C@@](O)(C(=O)CO)C[C@@H]3O[C@H]1C[C@H](N)[C@H](O)[C@H](C)O1 [doxorubicin] |  | Inhibition of BT-20 cell growth (positive control) [2]: 25% |
